Laboratory results published in patent publication US7875638B2, “Synthesis of epothilones, intermediates thereto, analogues and uses thereof” (Sloan-Kettering Institute for Cancer Research, priority 2002, dated 2011).
Values after ≈ are worked out from the molar mass of the structure shown. Like-named read-outs stand apart in the source and are kept apart here.

How the values were obtained:
MRC-5 = assay: XTT cell growth inhibition, MRC-5; type: cell-based, human; details: Homo sapiens, MRC5, read-out: IC50 (nM), MRC-5
SKI-DLBCL = assay: XTT cell growth inhibition, SKI-DLBCL; type: cell-based; details: Homo sapiens; Lymphoma; XTT tetrazonium assay
OPM-2 myeloma cells = assay: Cell cycle analysis (propidium iodide DNA staining), OPM-2; type: cell-based, human
Source text: FIG. 95 is cell cycle analysis as determined by Propidium iodide DNA staining. […] The two drugs induced the same patter of cell cycle arrest.

H929 = assay: XTT cell growth inhibition, H929; type: cell-based; details: Homo sapiens, NCI-H929, read-out: IC50 (nM), H929
CAG myeloma cell lines = assay: Annexin V staining, CAG; type: cell-based, human; details: 24 hours treatment
Source text: In early apoptotic cells, the membrane phospholipids phosphatidylserine (PS) is translocated from the inner to the outer leaflet of the plasma membrane, thereby exposing PS to the external cellular environment. Annexin V is a 35-36 kD Ca^2+ dependent phospholipids-binding protein that has a high affinity for PS, and binds to cells with exposed PS. In conjunction with a vital dye such as 7-amino-actinomycin (7-AAD) staining dead cells, this assay allows to identify early apoptotic cells. […] Note that X-axis is Annexin staining and Y-axis is 7-AAD staining.

primary CD138 MM cells = assay: Apoptosis of primary myeloma cells; type: cell-based, human; details: cells obtained from patient marrow
[1] = tested on: myeloma cell lines (RPMI8226, CAG); assay: XTT cell proliferation, myeloma cell lines; type: cell-based, human; details: Homo sapiens, RPMI-8226, read-out: IC50, myeloma cell lines (RPMI8226, CAG)
CAG myeloma cells = assay: Disseminated CAG xenograft myeloma mice; details: 20 mg/kg
Protocol: 10×10^6 CAG myeloma cells engineered with Luc-eGFP-TK fusion gene were injected intravenously into the mouse-tail vein, and the treatment was started when decent myeloma cells implantation was detected by bioluminescence imaging on day 7.

[2] = tested on: human lung carcinoma xenograft (A549); assay: A549 xenograft in nude mice; details: 29: after two more doses; dEpoB: 30 mg/kg, Q2Dx6
RPMI8226 myeloma cells = assay: Pulse exposure, washout and cell count; type: cell-based, human
CCRF-CEM/Taxol = type: cell-based, human; details: Homo sapiens, CCRF-CEM, 72 h
in vitro = details: human, s9
Protocol: Stability of epothilones in mouse and in human liver S9 fraction. The stability study was carried out with a fully automated HPLC system which consisted of a Prospekt-2 (Spark Holland, Netherlands) sample preparation system and an Agilent 1100 HPLC system. Briefly, the Prospekt 2 picked up a C8 extraction cartridge and washed it with acetonitrile and water. The Agilent autosampler, set at 37° C., picked up 20 μl of the sample, loaded it onto the cartridge, washed it with water, then the Prospekt-2 diverted the mobile phase stream through the extraction cartridge onto the analytical column, Reliance Stable Bond C8 4×80 mm with guard column (MacMod, Chadds Ford, Pa.) and the eluent was monitored at 250 nm. […] Sample preparation involved the addition of equal volumes of plasma to PBS for a total volume of 300-400 μl, filtered, and the addition of 0.5-2 μl of the substrate (20 mM) to achieve about 30-50 mAU at 250 nm in the HPLC analysis. For pooled human liver microsome S9 fraction (Xeno Tech, Lenex, Kans.), 20 μl (400 μg) or S9 fraction was mixed with 280 μl of PBS then proceeded as above. The sampling period was controlled by the autosampler and peak area data were collected to compare the rate of disappearance of the parent compound.
Stability of epothilones in mouse and in human liver S9 fraction: The stability study was carried out with a fully automated HPLC system which consisted of a Prospekt-2 (Spark Holland, Netherlands) sample preparation system and an Agilent 1100 HPLC system. Briefly, the Prospekt 2 picked up a C8 extraction cartridge and washed it with acetonitrile and water. The Agilent autosampler, set at 37° C., picked up 20 μl of the sample, loaded it onto the cartridge, washed it with water, then the Prospekt-2 diverted the mobile phase stream through the extraction cartridge onto the analytical column, Reliance Stable Bond C8 4×80 mm with guard column (MacMod, Chadds Ford, Pa.) and the eluent was monitored at 250 nm. […] Sample preparation involves the addition of equal volumes of plasma to PBS for a total volume of 400 μl, filtered, and the addition of 0.5-2 μl of the substrate (20 mM) to achieve about 30-50 mAU at 250 nm in the HPLC analysis. For pooled human liver microsome S9 fraction (Xeno Tech, Lenex, Kans.), 20 μl (400 μg) or S9 fraction was mixed with 280 μl of PBS then proceeds as above. The sampling period was controlled by the autosampler and peak area data were collected to compare the rate of disappearance of the parent compound.

[3] = tested on: RPMI-8226 (human multiple myeloma cell line); assay: Global gene expression (Affymetrix chip AU133 2.0); type: cell-based
[4] = tested on: human mammary carcinoma MX-1 xenograft; assay: MX-1 xenograft in nude mice; details: mouse, in vivo
OPM-2 = assay: XTT cell growth inhibition, OPM-2; type: cell-based; details: Homo sapiens, OPM-2, read-out: IC50 (nM), OPM-2
Solubility in water = details: water
Human CD34+ stem cells = assay: Apoptosis and 2 weeks progenitor assays on CD34+ stem cells; type: cell-based; details: 24 hours incubation, umbilical cord blood CD34+
Protocol: Then drugs were washed out and annexin V staining was performed. Solid area represents vehicle control and open area represents drug treated group. There is no obvious increased apoptosis of non-cycling human CD34+ cells with short period of exposure to epothilones.
Drug cytotoxicity to hematopoietic stem cells is always a major concern. Human CD34+ stem cells were isolated from umbilical cord blood and incubated with either dEpoB or Fludelone alone for 24 hours. After washing out the drugs, apoptosis assays and 2 weeks progenitor assays were performed to evaluate the influence of epothilone to stem cells.

MOLP-5 = assay: XTT cell growth inhibition, MOLP-5; type: cell-based; details: Homo sapiens, read-out: IC50 (nM), MOLP-5

**Q.** Which IC50 (MRC-5) does the source give for C/C1=C/CC(/C(C)=C/c2csc(C)n2)OC(=O)C[C@H](O)C(C)(C)C(=O)[C@H](C)[C@@H](O)[C@@H](C)CCC1 (some centres unmarked) [Compound 1, 12,13-desoxyepothilone B, reference compound] here?
**A.** Its IC50 is 8.2 ± 4.3 nM.

**Q.** What about the IC50 (SKI-DLBCL) of the same compound?
**A.** The IC50 was 72 ± 9.8 nM.

**Q.** And the Cell cycle arrest (OPM-2 myeloma cells)?
**A.** Its Cell cycle arrest is “arrested in G2M phase starting from 6 hours and absolutely blocked at 24 hours”.

**Q.** What about the IC50 (H929) of the same compound?
**A.** Its IC50 is 42.8 ± 4.5 nM.

**Q.** What about the “Apoptosis (Annexin V / 7-AAD)” value (CAG myeloma cell lines) of the same compound?
**A.** The value was “majority of cells either enter apoptosis or are dead”.

**Q.** And the “Tumor apoptosis within 24 hrs” value (primary CD138 MM cells)?
**A.** Its value is “not”.

**Q.** And the IC50 [1]?
**A.** Its IC50 is 36.7 to 61.3 nM.

**Q.** What about the “Survival after transplanting CAG cells (Kaplan-Meier)” value (CAG myeloma cells) of the same compound?
**A.** Its value is at most 50 days.

**Q.** And the Survival versus controls (CAG myeloma cells; intraperitoneal)?
**A.** Its Survival versus controls is “no difference in survival”.

**Q.** And the Tumor eradication [2]?
**A.** Its Tumor eradication is “no tumor eradication”.

**Q.** And the IC50 (CCRF-CEM; human)?
**A.** Its IC50 is 0.0056 ± 0.0028 µM.

**Q.** And the IC50 (CCRF-CEM; read-out: IC50 (μM), CCRF-CEM, XTT assay following 72 h inhibition, Table 1-2)?
**A.** The IC50 was 0.0036 µM.

**Q.** And the IC50 (CCRF-CEM; read-out: IC50, CCRF-CEM(C), XTT assay following 72 h inhibition, Table 1-3)?
**A.** Its IC50 is 0.0036 µM.

**Q.** What about the IC50 (CCRF-CEM; read-out: IC50, CCRF-CEM, XTT assay following 72 h inhibition, Table 1-4) of the same compound?
**A.** Its IC50 is 0.0036 µM.

**Q.** What about the “Decrease of the number of cells from input” value (RPMI8226 myeloma cells; 4-8 hrs exposure, washout, incubation up to 48 hrs) of the same compound?
**A.** The value was “slowed cell expansion”.

**Q.** What about the “Cell death after pulse exposure” value (RPMI8226 myeloma cells; 24 hrs exposure) of the same compound?
**A.** Its value is “all cells being dead by 48 hrs”.

**Q.** And the “Decrease of tumor cell numbers” value (RPMI8226 myeloma cells; one hour exposure, washout, 48 hrs)?
**A.** Its value is “reduced but did not prevent tumor cell expansion”.

**Q.** And the IC50 (CCRF-CEM/Taxol; read-out: IC50 (μM), CCRF-CEM/Taxol)?
**A.** The IC50 was 0.0057 µM.

**Q.** What about the IC50 (CCRF-CEM/Taxol; read-out: IC50, C/Taxol (μM)) of the same compound?
**A.** Its IC50 is 0.0046 µM.

**Q.** And the IC50 (CCRF-CEM/Taxol; read-out: IC50, CCRF-CEM/Taxol)?
**A.** The IC50 was 0.0046 µM.

**Q.** What about the half-life (in vitro) of the same compound?
**A.** The half-life was 1 ± 0.1 h.

**Q.** What about the “Increase in expression, OAS2” value ([3]; 6 hrs or 18 hrs of dEpoB treatment) of the same compound?
**A.** The value was “+2”.

**Q.** What about the “Increase in expression, MX1” value ([3]; 18 hrs of dEpoB treatment) of the same compound?
**A.** Its value is “+2.3”.

**Q.** And the “Changes of body weight (%) on day 4 after stopping administration” value [4]?
**A.** The value was −25.3 ± 2.1%.

**Q.** What about the “Changes of body weight (%) on day 8 after stopping administration” value [4] of the same compound?
**A.** Its value is −9.1 ± 4.1%.

**Q.** And the IC50 (OPM-2)?
**A.** The IC50 was 38.9 ± 3.3 nM.

**Q.** What about the solubility (Solubility in water) of the same compound?
**A.** The solubility was 9.4 µg/mL (≈ 19.1 µM).

**Q.** And the “Toxicity on non-cycling stem cells” value (Human CD34+ stem cells)?
**A.** The value was “no significant toxicity”.

**Q.** And the IC50 (MOLP-5)?
**A.** The IC50 was 68.6 ± 5.5 nM.
